Legend:
human CB1 receptor = molecular target: T1, human CB1 receptor (Homo sapiens, UniProt P21554); test: CB1 radioligand competitive binding assay ([3H]CP 55,940 displacement)
T1 construct: host or cells: CHO-K1 (Chinese hamster ovary) cells, stably transfected; membranes prepared in house

human CB2 receptor = molecular target: T2, human CB2 receptor (Homo sapiens, UniProt P34972); test: CB2 radioligand competitive binding assay ([3H]CP 55,940 displacement); details: for Selectivity CB2: fold difference in binding between CB1 and CB2, shown in column of receptor with higher affinity, 1.00 in both = about the same affinity
T2 construct: host or cells: CHO-K1 (Chinese hamster ovary) cells, stably transfected; membranes prepared in house
Experimental: Compounds of the present disclosure were tested for CB1 receptor binding affinity and for CB2 receptor binding affinity. As used herein, “binding affinity” is represented by the IC50 value, which was experimentally determined as described herein. The lower the IC50 value the higher the binding affinity.
The membranes were prepared from CHO-K1 (Chinese hamster ovary) cells stably transfected with the human CB2 receptor (Cat. #ES-111-C; Perkin Elmer, Boston, MA). The cells were grown adherently and maintained in Ham's F12 medium containing 10% fetal bovine serum (FBS), penicillin, streptomycin and geneticin (G418) at 37° C. in a humid atmosphere of 5% CO2 following the manufacturer's instructions.
For membrane preparation the cells were washed with PBS and scraped off the plates in cold homogenization buffer (25 mM HEPES (pH 7.4), 2 mM EDTA) containing protease inhibitor cocktail (Sigma Cat. #P8340). The cell suspension was homogenized with a Pro-PK-01200D Polytron Homogenizer (Pro Scientific) and then centrifuged for 30 min at 120,000×g. The supernatant was discarded and the pellet was re-suspended in the homogenization buffer and stored at −80° C. until the time of use.
In this experiment, 3H radiolabeled CP 55,940, i.e. [3H]CP 55,940 (Perkin Elmer, Boston, MA), was used as a radioligand for the CB2 receptor to determine the binding affinity of compounds for the CB2 receptor (Scheme 3; above).
The competition binding experiments (single dose and dose-response) were performed by incubating 0.6 nM of [3H]CP55,940 (specific activity 101 Ci/mmol, Perkin Elmer) and different concentrations of compounds disclosed herein with membranes prepared as above from CHO-K1 cells expressing human CB2 receptor (1 μg of protein/well), 50 mM Tris-HCl (pH 7.4), 5 mM MgCl2, 1 mM CaCl2, and 2 mg/mL BSA.
For the dose-response experiments the test compounds were sequentially diluted to provide the desired concentration range for the IC50 determination. In each case the compounds were pre-incubated with the membrane for 20 min, before adding the radioligand.
After incubation with the radioligand for 60 min at 37° C., the incubation was terminated by rapid filtration of assay mixture through MultiScreen®HTS^+ 96-well filter plates (Millipore, Cat. #MSFCNXB), pre-soaked for 60 min with 50 mM Tris-HCl (pH 7.4) containing 0.33% polyethylenimine (PEI). The nonspecific binding (NSB) was determined in the presence of 10 μM unlabelled CP55,940. After drying the filter plate at 50° C. for at least 60 min, the filter-bound radioactivity was determined by scintillation spectrometry using the 1450 MicroBeta Plate Counter (Perkin Elmer, Boston, MA).

T2 sequence (P34972 whole entry): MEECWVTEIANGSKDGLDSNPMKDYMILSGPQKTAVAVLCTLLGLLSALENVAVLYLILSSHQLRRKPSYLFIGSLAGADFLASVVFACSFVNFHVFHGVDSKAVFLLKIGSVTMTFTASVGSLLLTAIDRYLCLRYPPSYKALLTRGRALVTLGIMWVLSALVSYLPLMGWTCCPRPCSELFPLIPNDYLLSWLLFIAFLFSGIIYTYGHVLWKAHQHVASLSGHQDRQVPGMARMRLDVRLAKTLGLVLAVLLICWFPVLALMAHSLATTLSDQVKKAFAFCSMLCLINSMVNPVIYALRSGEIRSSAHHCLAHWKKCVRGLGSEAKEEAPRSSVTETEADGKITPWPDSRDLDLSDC
T1 sequence (P21554 whole entry): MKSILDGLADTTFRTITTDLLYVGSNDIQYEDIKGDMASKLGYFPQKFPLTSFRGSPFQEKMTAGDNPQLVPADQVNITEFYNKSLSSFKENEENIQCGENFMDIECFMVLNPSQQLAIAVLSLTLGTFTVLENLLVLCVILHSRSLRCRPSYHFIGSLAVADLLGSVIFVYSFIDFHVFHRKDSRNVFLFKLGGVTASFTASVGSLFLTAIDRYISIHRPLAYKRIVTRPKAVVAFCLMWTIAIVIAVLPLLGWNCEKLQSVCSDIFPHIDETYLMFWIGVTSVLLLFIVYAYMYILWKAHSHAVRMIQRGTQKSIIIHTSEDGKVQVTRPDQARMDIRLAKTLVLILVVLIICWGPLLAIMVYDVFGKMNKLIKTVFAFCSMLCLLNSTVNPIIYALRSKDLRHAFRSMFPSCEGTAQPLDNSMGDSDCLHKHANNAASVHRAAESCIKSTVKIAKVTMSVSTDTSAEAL

| Structure (SMILES) | IC50 (human CB1 receptor) | IC50 (human CB2 receptor) | Selectivity CB2 (human CB2 receptor) |
| --- | --- | --- | --- |
| CCCCCc1cc(O)c(C2C=C(C)CCC2)c(O)c1C(N)=O (stereo not drawn) [Compound 58c, 2,6-dihydroxy-5′-methyl-4-pentyl-1′,2′,3′,4′-tetrahydro-[1,1′-biphenyl]-3-carboxamide] | > 5000 nM | 1000 to 4990 nM | 11.83 fold |
| CCCCCc1cc(O)c(-c2cccc(C)c2)c(O)c1CN(C)C(=O)OC [Compound 59a, methyl ((2,6-dihydroxy-3′-methyl-4-pentyl-[1,1′-biphenyl]-3-yl)methyl)(methyl)carbamate] | 100 to 990 nM | < 100 nM | 10.91 fold |
| CCCCCc1cc(O)c(C2C=C(C)CCC2)c(O)c1CN(C)C(=O)OC (stereo not drawn) [Compound 59c, methyl ((2,6-dihydroxy-5′-methyl-4-pentyl-1′,2′,3′,4′-tetrahydro-[1,1′-biphenyl]-3-yl)methyl)(methyl)carbamate] | 100 to 990 nM | < 100 nM | 9.26 fold |
| C=C(C)[C@@H]1CCC(C)=C[C@H]1c1c(O)cc(CCC)c(C(=O)NC)c1O [Compound 96d, 2,6-dihydroxy-N,5′-dimethyl-2′-(prop-1-en-2-yl)-4-propyl-1′,2′,3′,4′-tetrahydro-[1,1′-biphenyl]-3-carboxamide] | > 5000 nM | > 5000 nM | 2.59 fold |
